This is an account of results in patent publication US20140341983A1, “SMART™ SOLID ORAL DOSAGE FORMS” (priority 2011, published 2014).

A short description of data set [1]: Aim 1: breath kinetics and dose-response after sublingual solutions (SAW). It counts as in vivo, human. The method, then: Dose-response relationships were determined in four study participants following sublingual administration of solutions containing D-limonene and methyl salicylate. […] Five seconds after administration of the solution, the participant would blow a single five second breath into the SAW sensor. […] The participant kept his or her mouth closed when not providing a sample and refrained from breathing through the mouth or talking during the collection period. In addition, the more promising solutions (7, 12 and 16) were tested in triplicate to estimate reproducibility within individuals.

Data set [2] can be described thus: D-limonene recovery from placebo SL powder by LCMS (stability). It counts as physicochemical.
Description: Three replicate 30 mg portions of this powder were removed immediately after preparation and extracted with acetonitrile to recover the D-limonene. The extracts were analyzed by liquid chromatography-mass spectrometry (LCMS). This was repeated with three more portions after four hours and again after eight hours (FIG. 26).
For data set [3] the following is noted: @ 25° C., experimental; cited from earlier work.
Data set [4] in a line: Oral vanillin detection by direct breath LCMS (OrbiTrap). It counts as in vivo, human. As to conditions: 30 μg vanillin in 10 μL neat ethanol on tongue. The source says:
In the lower panel of FIG. 14, note how an internal standard (semi-volatile organic acid) stays constant for each of the six breaths.

The conditions of data set [5]: cited from earlier work.
For data set [6] the following is noted: octanol-water coefficient; cited from earlier work.
For data set [7] the following is noted: cited from earlier work. This is another data set of the same source.
Data set [8] in a line: Breath 2-butanone after ingestion of food or 2-butanol taggant. As to conditions: foods: two servings; 2-butanol taggant: 40 mg ingested, n=7.
Description: To assess the interference produced by food, 6 subjects rapidly consumed (<5 min) two servings (≈16 fl. Oz) of yogurt or 2 servings (≈60 g) of cheddar cheese and breath samples were collected for 60 min after ingestion.
Setting [9] is: dose that can be taken for remainder of life without regulatory concern.

Read-outs that look alike come from different tables or passages of the source.

For the compound `C=C(C)[C@H]1CC=C(C)CC1` [D-limonene, 4-isopropenyl-1-methylcyclohexene], in data set [1] (human, in vivo), the “breath concentration measured at 5 seconds lost by 50 seconds” value was 78%. In addition, in data set [1] (in vivo), the “time course of flavorant concentration in exhaled breath” value is recorded as “decayed exponentially over time”. Further, the “D-limonene dose recovered from SL powder” value in data set [2] (at eight hours) is listed as 11%; in data set [2] (at four hours), 22%; in data set [2] (just after preparation), “Approximately 65%”.

As to `COc1cc(C=O)ccc1O` [vanillin, 4-hydroxy-3-methoxybenzaldehyde], the “VP (vapor pressure)” value in data set [3] is 1.18E-04 @ 25 °C mmHg. Further, the “persistence in human breath” value in data set [4] is reported as 2 min; in data set [4] (listed as Vanillin) it was “≈ 2 min”. For the same compound, the “Water Sol” value in data set [5] (@ 25° C.) was 11,000 @ 25 °C mg/L.

Regarding `CC(C)[C@@H]1CC[C@@H](C)C[C@H]1O` (racemic) [DL-menthol], the “VP (vapor pressure)” value in data set [3] is 0.0637 @ 25 °C mmHg. In addition, the “Water Sol” value in data set [5] (@ 25° C.) is 456 @ 25 °C mg/L.

A word on the log P: it is the decadic logarithm of the partition coefficient of the neutral form, usually between octanol and water. As for `C=C(C)[C@@H]1CC=C(C)C(=O)C1` [L-carvone], in data set [3], the “VP (vapor pressure)” value is 0.103 @ 25 °C mmHg. In addition, in data set [6], the “log P” value is reported as 2.71. For the same compound, the “Water Sol” value in data set [5] (@ 25° C.) was 1,310 @ 25 °C mg/L.

Turning to `COC(=O)c1ccccc1N` [methyl anthranilate], in data set [6], the “log P” value is 1.88. The “Water Sol” value in data set [5] (@ 25° C.) is 2,850 @ 25 °C mg/L.

On to `CCO` [ethanol, reference compound], for which the “permissible daily exposure (PDE)” value in data set [7] (orally) is 166.7 mg orally per day.

For `CCC(C)O` (stereo not drawn) [Formulation 2-butanol, 2-butanol], in data set [7] (setting [9]), the “permissible daily exposure (PDE)” value was 300 mg/day. Moreover, the “permissible daily exposure (PDE)” value in data set [7] (orally) is given as 300 mg orally per day. In data set [8], the “Maximum 2-butanone (Cmax) in breath” value was “≈ 549 ppb” and the “Tmax of 2-butanone in breath” value was 6.7 ± 0.6 min.

Consider `CC(C)c1cccc(C(C)C)c1O` [propofol, reference compound], for which the “VP (vapor pressure)” value in data set [3] is 0.00305 @ 25 °C mmHg. In data set [5] (@ 25° C.), the “Water Sol” value was 124 @ 25 °C mg/L.

For the compound `COC(=O)c1ccccc1O` [methyl salicylate, methyl-2-hydroxybenzoate], the “VP (vapor pressure)” value in data set [3] is 0.0343 @ 25 °C mmHg. In data set [1] (after a single SL administration), the “time course of flavorant concentration in exhaled breath” value is “decayed exponentially over time”. Further, in data set [1] (single SL administration, average), the “breath concentration measured at 5 seconds lost by 50 seconds” value was 50%. For the same compound, the “log P” value in data set [6] is 2.55. For the same compound, in data set [5] (@ 30° C.), the “Water Sol” value is 700 @ 30 °C mg/L.

On to `CCCC(C)=O` [Formulation 2-pentanone, 2-pentanone], for which the “permissible daily exposure (PDE)” value in data set [7] (setting [9]) is 250 mg/day; in data set [7] (orally), 250 mg orally per day.
